Test results reported in ChEMBL document CHEMBL2016477, “Pimarane diterpenes from the fungus Epicoccum sp. HS-1 associated with Apostichopus japonicus” (Bioorg Med Chem Lett, 2012).
Converted amounts (≈) assume the structure as drawn.

Legend:
KB = experiment: Cytotoxicity against human KB cells; format: functional, cell-based
[1] = Cytotoxicity against multidrug resistant human KBv200 cells expressing p-glycoprotein; format: functional, cell-based

Row | Structure (SMILES) | IC50 (KB) [µg/mL] | IC50 [1] [µg/mL]
1 | C=C[C@]1(C)C=C2C(=O)C(O)=C3C(C)(C)CCC[C@]3(C)[C@@]2(O)CC1 | 20.7 (≈ 65.5 µM) | 14.5 (≈ 45.7 µM)
2 | C=C[C@]1(C)C=C2[C@@H](O)C[C@H]3C(C)(C)CCC[C@]3(C)[C@@]2(O)CC1 | > 100 | > 100
3 | C=C[C@]1(C)C=C2C(=O)[C@@]3(O)OC[C@@]4(CCCC(C)(C)[C@@]43O)[C@@]2(O)[C@H](O)C1 [DIAPORTHINS B] | 3.86 (≈ 10.6 µM) | 6.52 (≈ 17.9 µM)
